The values below come from patent publication US20070254881A1, “Pyrazole Derivative” (DAIICHI PHARMACEUTICAL CO., LTD., priority 2004, published 2007).

One experiment concerns the target T1, Cyclooxygenase-1 (COX-1) (Ovis aries, UniProt P05979).
T1 construct: purchased Cayman Chemical Company 560101
T1 sequence (P05979 25-600): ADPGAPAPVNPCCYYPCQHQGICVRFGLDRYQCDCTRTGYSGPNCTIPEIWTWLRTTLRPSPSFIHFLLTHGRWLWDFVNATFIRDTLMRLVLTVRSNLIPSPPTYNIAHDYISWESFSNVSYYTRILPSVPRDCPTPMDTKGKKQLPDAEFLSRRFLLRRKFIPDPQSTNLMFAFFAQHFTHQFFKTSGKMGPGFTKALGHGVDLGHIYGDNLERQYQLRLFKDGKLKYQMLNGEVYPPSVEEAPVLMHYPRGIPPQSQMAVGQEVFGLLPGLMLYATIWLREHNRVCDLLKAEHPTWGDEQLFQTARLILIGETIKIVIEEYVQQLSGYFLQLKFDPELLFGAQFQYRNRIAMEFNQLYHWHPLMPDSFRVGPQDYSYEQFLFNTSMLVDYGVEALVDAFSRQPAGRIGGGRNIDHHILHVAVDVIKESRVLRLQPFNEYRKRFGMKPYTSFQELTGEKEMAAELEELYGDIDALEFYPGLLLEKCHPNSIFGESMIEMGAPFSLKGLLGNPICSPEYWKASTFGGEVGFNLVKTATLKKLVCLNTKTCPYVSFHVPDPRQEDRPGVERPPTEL
In words: COX-1 inhibition, COX Inhibitor Screening Assay Kit (PGF2α production, ELISA). The format is biochemical. The note with it: compound 50 μM. The source says: For the measurement of the inhibitory activity of the compounds obtained in the Examples against COX-1 and COX-2, a COX Inhibitor Screening Assay Kit manufactured by Cayman Chemical Company (Catalog Nos. 560101 and 560121) was used.
Before starting the measurement, a reaction buffer, heme, arachidonic acid, SnCl2, EIA buffer, a washing buffer, prostaglandin (PG)-screening EIA standard solution, PG-screening acetylcholinesterase (AchE), a tracer […], and PG-screening EIA antiserum were provided.
A reaction solution containing a compound of the Examples (50 μM) and COX-1, or a reaction solution containing a compound of the Examples (300 μM) and COX-2 was allowed to stand at 37° C. for 10 minutes, then 10 μl of arachidonic acid was added thereto, and the resultant mixture was allowed to stand at 37° C. for 2 minutes. After the reaction, 50 μl of 1 N hydrochloric acid was added to the reaction mixture to stop the reaction, and 100 μl of a SnCl2 solution was added thereto. The resultant mixture was allowed to stand at room temperature for 5 minutes.
50 μl of antiserum (rabbit anti-PGF2α antibody) was added to each well of a 96-well plate coated with mouse anti-rabbit IgG. Then, 50 μl of a solution prepared by diluting the reaction solution for PGF2α production to 2000-folds, and 50 μl of an AchE tracer were added sequentially to the wells, and the plate was kept at room temperature for 18 hours. Each well washed 5 times with the washing buffer to remove excessive AchE tracer, and then 200 μl of Ellman reagent was added to each well. The plate was kept in the dark room for 60 minutes, and then, absorbance at 405 nm was measured.
A standard curve was produced using a PG-screening EIA standard solution, and the amount of PGF2α production was determined from the absorbance obtained as described above. The COX-1 inhibition rate at 50 μM of the compound of the Examples, and the COX-2 inhibition rate at 300 μM of the compound of the Examples were calculated.
A general note: ELISA stands for enzyme-linked immunosorbent assay.

In experiment [1] the test system is collagen-induced platelet aggregation. Put plainly: Platelet aggregation suppressing effect (collagen-induced aggregation in platelet rich plasma). The note with it: human PRP, 37° C., collagen as inducer, read-out: Inhibitory effect of collagen-induced platelet aggregation IC50. It counts as cell-based. On the procedure: Human blood was collected using 3.13% sodium citrate in a volume 1/10 of the blood volume, as an anticoagulant. The collected blood was centrifuged at 180 g for 10 minutes to separate platelet rich plasma (PRP) from the blood. After collecting the PRP fraction in the upper layer, the lower layer was further centrifuged at 1600 g for 10 minutes to fractionate platelet poor plasma (PPP) in the upper layer. One μl of a solution of a compound obtained in the Examples was added to 200 μl of PRP, and the mixture was allowed to stand at 37° C. for 2 minutes. Subsequently, 2 μl of collagen was added thereto, so as to induce platelet aggregation. The platelet aggregation rate was measured using PAM-12C(SSR Engineering, Inc.).

SMILES strings stand for the structures.

In general, IC50 refers to the concentration that gives 50% inhibition. As to `COC1CCN(C(=O)c2cc(-c3cnc(C)cn3)n(-c3ccc(C)nc3)n2)CC1` [Example 3, 1-[5-(5-Methyl-2-pyrazinyl)-1-(6-methyl-3-pyridyl)-1H-pyrazole-3-carbonyl]-4-methoxypiperidine], on Cyclooxygenase-1 (COX-1), the “COX-1 inhibitory action at 50 μM (% inhibition)” value is given as −21.2 % inhibition. Besides, the IC50 in experiment [1] amounted to 220 nM.
The matching figures for `COc1ccc(-n2nc(C(=O)N3CCN(C)C(=O)C3)cc2-c2cscn2)cn1` [Example 126, 1-[1-(6-Methoxy-3-pyridyl)-5-(thiazol-4-yl)-1H-pyrazole-3-carbonyl]-4-methyl-3-oxopiperazine]: −6.4 % inhibition and 360 nM.
On to `COc1ccc(-n2nc(C(=O)N3CCC(OC)CC3)cc2-c2cnn(C)c2)cn1` [Example 119, 1-[1-(6-Methoxy-3-pyridyl)-5-(1-methyl-1H-pyrazol-4-yl)-1H-pyrazole-3-carbonyl]-4-methoxypiperidine], for which the “COX-1 inhibitory action at 50 μM (% inhibition)” value on Cyclooxygenase-1 (COX-1) amounted to 13.0 % inhibition. The half-maximal inhibitory concentration (IC50) in experiment [1] was found to be 160 nM.
`COc1ccc(-n2nc(C(=O)N3CCC(OC)CC3)cc2-c2cscn2)nn1` [Example 132, 1-[1-(6-Methoxy-3-pyridazinyl)-5-(thiazol-4-yl)-1H-pyrazole-3-carbonyl]-4-methoxypiperidine]: in experiment [1], the half-inhibitory concentration (IC50) amounted to 190 nM.
Regarding `COc1ccc(-n2nc(C(=O)N3CCOCC3)cc2-c2cscn2)cn1` [Example 118, 4-[1-(6-Methoxy-3-pyridyl)-5-(thiazol-4-yl)-1H-pyrazole-3-carbonyl]morpholine], the “COX-1 inhibitory action at 50 μM (% inhibition)” value at Cyclooxygenase-1 (COX-1) is reported as −12.7 % inhibition. Further, the IC50 in experiment [1] is 79 nM.
For the compound `COc1ccc(-n2nc(C(=O)N3CCCOCC3)cc2-c2cscn2)nn1` [Example 137, 4-[1-(6-Methoxy-3-pyridazinyl)-5-(thiazol-4-yl)-1H-pyrazole-3-carbonyl]-1,4-oxazepane], in experiment [1], the IC50 is 80 nM.
On to `COc1ccc(-n2nc(C(=O)N3CCOCC3)cc2-c2cc[nH]n2)cn1` [Example 33, 4-[1-(6-Methoxy-3-pyridyl)-5-(1H-pyrazol-3-yl)-1H-pyrazole-3-carbonyl]morpholine], for which the “COX-1 inhibitory action at 50 μM (% inhibition)” value at Cyclooxygenase-1 (COX-1) is given as −9.5 % inhibition. Also, the IC50 in experiment [1] was 97 nM.
Taken in the same sequence, the figures for `COc1ccc(-n2nc(C(=O)N3CCCC3C)cc2-c2ccccn2)nn1` (stereo not drawn) [Example 27, 1-[1-(6-Methoxy-3-pyridazinyl)-5-(2-pyridyl)-1H-pyrazole-3-carbonyl]-2-methylpyrrolidine] were −10.2 % inhibition and 91 nM.
Taken in the same sequence, the figures for `Cc1ccc(-c2cc(C(=O)N3CCC(F)(F)CC3)nn2-c2ccc(C)nn2)nc1` [Example 18, 1-[1-(6-Methyl-3-pyridazinyl)-5-(5-methyl-2-pyridyl)-1H-pyrazole-3-carbonyl]-4,4-difluoropiperidine] were −3.0 % inhibition and 200 nM.
The matching figures for `COc1ccc(-n2nc(C(=O)N3CCC(F)(F)CC3)cc2-c2cnn(C)c2)nn1` [Example 141, 1-[1-(6-Methoxy-3-pyridazinyl)-5-(1-methyl-1H-pyrazol-4-yl)-1H-pyrazole-3-carbonyl]-4,4-difluoropiperidine]: 24.4 % inhibition and 190 nM.
For `COc1ccc(-n2nc(C(=O)N3CCOCC3)cc2-c2cc[nH]c2)nn1` [Example 41, 1-[1-(6-Methoxy-3-pyridazinyl)-5-(1H-pyrrol-3-yl)-1H-pyrazole-3-carbonyl]morpholine], on Cyclooxygenase-1 (COX-1), the “COX-1 inhibitory action at 50 μM (% inhibition)” value is listed as −21.3 % inhibition. Besides, the IC50 in experiment [1] was determined as 170 nM.
Consider `Cc1ccc(-n2nc(C(=O)N3CCC(F)(F)CC3)cc2-c2cnc(C)cn2)cn1` [Example 2, 1-[5-(5-Methyl-2-pyrazinyl)-1-(6-methyl-3-pyridyl)-1H-pyrazole-3-carbonyl]-4,4-difluoropiperidine], for which, on Cyclooxygenase-1 (COX-1), the “COX-1 inhibitory action at 50 μM (% inhibition)” value is recorded as −1.2 % inhibition. For the same compound, the IC50 in experiment [1] amounted to 130 nM.
Taken in the same sequence, the figures for `COc1ccc(-n2nc(C(=O)N3CCOC[C@H]3C)cc2-c2ccccn2)nn1` [Example 107, (−)(3R)-4-[1-(6-Methoxypyridazin-3-yl)-5-(2-pyridyl)-1H-pyrazole-3-carbonyl]-3-methylmorpholine] were −3.9 % inhibition and 430 nM.
For `COc1ccc(-n2nc(C(=O)N3CCCCN3)cc2-c2cnn(C)c2)cn1` [Example 134, 1-[1-(6-Methoxy-3-pyridyl)-5 (1-methyl-1H-pyrazol-4-yl)-1H-pyrazole-3-carbonyl]hexahydropyridazine], the IC50 in experiment [1] amounted to 40 nM.
On the same count and under the same terms, in the case of `COc1ccc(-n2nc(C(=O)N3CCCCC3C(N)=O)cc2-c2cscn2)cn1` (stereo not drawn) [Example 129, 1-[1-(6-Methoxy-3-pyridyl)-5-(thiazol-4-yl)-1H-pyrazole-3-carbonyl]-2-carbamoylpiperidine] it was 260 nM; in that of `COc1ccc(-n2nc(C(=O)N3CCCOCC3)cc2-c2cnn(C)c2)cn1` [Example 136, 4-[1-(6-Methoxy-3-pyridyl)-5-(1-methyl-1H-pyrazol-4-yl)-1H-pyrazole-3-carbonyl]-1,4-oxazepane], 360 nM.
In the case of `Cc1ccc(-n2nc(C(=O)N3CCC(F)CC3)cc2-c2cnc(C)cn2)cn1` [Example 32, 1-[5-(5-Methyl-2-pyrazinyl)-1-(6-methyl-3-pyridyl)-1H-pyrazole-3-carbonyl]-4-fluoropiperidine], the “COX-1 inhibitory action at 50 μM (% inhibition)” value at Cyclooxygenase-1 (COX-1) is given as −8.4 % inhibition. In experiment [1], the IC50 came out at 210 nM.
As for `COc1ccc(-n2nc(C(=O)N3CCC(OC)CC3)cc2-c2cscn2)cn1` [Example 128, 1-[1-(6-Methoxy-3-pyridyl)-5-(thiazol-4-yl)-1H-pyrazole-3-carbonyl]-4-methoxypiperidine], in experiment [1], the IC50 was determined as 100 nM.
Turning to `COc1ccc(-n2nc(C(=O)N3CCN(C)C(=O)C3)cc2-c2cnn(C)c2)cn1` [Example 121, 1-[1-(6-Methoxy-3-pyridyl)-5-(1-methyl-1H-pyrazol-4-yl)-1H-pyrazole-3-carbonyl]-4-methyl-3-oxopiperazine], the “COX-1 inhibitory action at 50 μM (% inhibition)” value at Cyclooxygenase-1 (COX-1) is −0.7 % inhibition. Also, the IC50 in experiment [1] was 710 nM.
Consider `COc1ccc(-n2nc(C(=O)N3CCCCN3)cc2-c2cscn2)cn1` [Example 138, 1-[1-(6-Methoxy-3-pyridyl)-5-(thiazol-4-yl)-1H-pyrazole-3-carbonyl]hexahydropyridazine], for which, in experiment [1], the IC50 was determined as 41 nM.
On the same count and under the same terms, in the case of `COc1ccc(-n2nc(C(=O)N3CCN(C)CC3)cc2-c2cscn2)nn1` [Example 131, 1-[1-(6-Methoxy-3-pyridazinyl)-5-(thiazol-4-yl)-1H-pyrazole-3-carbonyl]-4-methylpiperazine] it was 320 nM; in that of `COc1ccc(-n2nc(C(=O)N3CCC(F)(F)CC3)cc2-c2cscn2)nn1` [Example 133, 1-[1-(6-Methoxy-3-pyridazinyl)-5-(thiazol-4-yl)-1H-pyrazole-3-carbonyl]-4,4-difluoropiperidine], 80 nM.
For the compound `COc1ccc(-n2nc(C(=O)N3CCCOCC3)cc2-c2cscn2)cn1` [Example 139, 4-[1-(6-Methoxy-3-pyridyl)-5-(thiazol-4-yl)-1H-pyrazole-3-carbonyl]-1,4-oxazepane], in experiment [1], the IC50 was found to be 41 nM.
